According to patent US7465730B2, “Treatment of neuropathic pain with 6H-pyrrolo[3,4-d]pyridazine compounds” (Merck & Co. Inc., priority 2002, dated 2008):

Tested on: nerve injury-induced tactile allodynia
Assay: Spinal nerve ligation model (Chung model) of neuropathic pain
Type: in vivo, Male Sprague Dawley rats
Details: rat
From the text: The spinal nerve ligation model of neuropathic pain was used to assess the effects of test compounds on nerve injury-induced tactile allodynia (S. H. Kim and J. M. Chung, Pain 50:355-363(1992)). Male Sprague Dawley rats (175-200 g) received unilateral tight ligation of the left L5/L6 spinal nerves distal to the dorsal root ganglion using 4-0 silk suture. Behavioral-nociceptive testing occurred 7-14 days following spinal nerve ligation by placing the rats in chambers on a wire mesh. Rats were tested for tactile allodynia (decreased hindpaw withdrawal threshold to non-noxious punctate stimulation) by applying a series of calibrated von Frey filaments to the plantar aspect of the left hindpaw ipsilateral to the site of nerve injury. The mean 50% hindpaw withdrawal threshold (g.) was determined using the Dixon “up-down” non-parametric test (Chaplan et al., J. Neurosci. Methods, 53:55-63(1994)). […] Following determination of pre-drug withdrawal thresholds, rats received either an i.p. or p.o. injection of test compound. The effect of the test compound on tactile allodynia was determined over time by measuring hindpaw withdrawal thresholds 30, 60, 90, 120 min post-injection. In above model, EXAMPLE 1 produced a 65% effect after i.p. dosing at 30 mg/kg, EXAMPLE 50 produced a 100% effect after i.p. dosing at 20 mg/kg, EXAMPLE 115 produced a 60% effect after i.p. dosing at 30 mg/kg i.p.

Structure (SMILES)	effect on tactile allodynia (hindpaw withdrawal threshold) (i.p. dosing at 30 mg/kg)	effect on tactile allodynia (hindpaw withdrawal threshold) (i.p. dosing at 20 mg/kg)
CCOc1ccc(-n2c(C)c3c(C)nnc(-c4ccc(OC)cc4)c3c2C)cc1 [EXAMPLE 1, 6-(4-ethoxyphenyl)-1-(4-methoxyphenyl)-4,5,7-trimethyl-6H-pyrrolo[3,4-d]pyridazine]	65%	–
CCOc1ccc(-n2c(C)c3c(C)nnc(C)c3c2C)cc1 [EXAMPLE 50, 6-(4-ethoxyphenyl)-1,4,5,7-tetramethyl-6H-pyrrolo[3,4-d]pyridazine]	–	100%
CCOc1ccc(-n2c(C)c3c(C)nnc(NC4CCc5ccccc54)c3c2C)c(OC)c1 (stereo not drawn) [EXAMPLE 115, N-(2,3-dihydro-1H-inden-1-yl)-6-(4-ethoxy-2-methoxyphenyl)-4,5,7-trimethyl-6H-pyrrolo[3,4-d]pyridazin-1-amine]	60%	–
